This note sets out measurements from patent US6617329B2, “Aminoquinazolines and their use as medicaments” (Boehringer Ingelheim Pharma KG, priority 2000, dated 2003).

In the assay the target is T1, human EGF-R (Homo sapiens, UniProt P00533).
T1 construct: expressed in transfected cells; host or cells: F/L-HERc cells (murine IL-3-dependent FDC-P1 line transduced with LXSN retroviral vector carrying human EGF-R cDNA; packaging line GP+E86)
Kind of assay: Inhibition of EGF-dependent proliferation of F/L-HERc cells (Cell Titer 96 AQueous assay). It is filed as cell-based. As to conditions: F/L-HERc cells (murine IL-3-dependent line expressing human EGF-R), stimulated with EGF 20 ng/ml, 48 hours at 37° C. From the text: A cell line of murine origin dependent on interleukin-3-(IL-3) which was genetically modified to express functional human EGF-R was used here. The proliferation of these cells known as F/L-HERc can therefore be stimulated either by murine IL-3 or by EGF (cf. von Rüden, T. et al. in EMBO J. 7, 2749-2756 (1988). and Pierce, J. H. et al. in Science 239, 628-631 (1988)).
The starting material used for the F/L-HERc cells was the cell line FDC-P1, the production of which has been described by Dexter, T. M. et al. in J. Exp. Med. 152, 1036-1047 (1980). Alternatively, however, other growth-factor-dependent cells may also be used (cf. for example Pierce, J. H. et al. in Science 239, 628-631 (1988), Shibuya, H. et al. in Cell 70, 57-67 (1992) and Alexander, W. S. et al. in EMBO J. 10, 3683-3691 (1991)). For expressing the human EGF-R cDNA (cf. Ullrich, A. et al. in Nature 309, 418-425 (1984)) recombinant retroviruses were used as described by von Rüden, T. et al., EMBO J. 7, 2749-2756 (1988), except that the retroviral vector LXSN (cf. Miller, A. D. et al. in BioTechniques 7, 980-990 (1989)) was used for the expression of the EGF-R cDNA and the line GP+E86 (cf. Markowitz, D. et al. in J. Virol. 62, 1120-1124 (1988)) was used as the packaging cell.
F/L-HERc cells were cultivated in RPMI/1640 medium (Bio Whittaker), supplemented with 10% foetal calf serum (FCS, Boehringer Mannheim), 2 mM glutamine (Bio Whittaker), standard antibiotics and 20 ng/ml of human EGF (Promega), at 37° C. and 5% CO2. In order to investigate the inhibitory activity of the compounds according to the invention, 1.5×10^4 cells per well were cultivated in triplicate in 96-well dishes in the above medium (200 μl), the cell proliferation being stimulated with either EGF (20 ng/ml) or murine IL-3. The IL-3 used was obtained from culture supernatants of the cell line X63/0 mIL-3 (cf. Karasuyama, H. et al. in Eur. J. Immunol. 18, 97-104 (1988)). The compounds according to the invention were dissolved in 100% dimethylsulphoxide (DMSO) and added to the cultures in various dilutions, the maximum DMSO concentration being 1%. The cultures were incubated for 48 hours at 37° C.
In order to determine the inhibitory activity of the compounds according to the invention the relative cell number was measured in O.D. units using the Cell Titer 96™ AQueous Non-Radioactive Cell Proliferation Assay (Promega). The relative cell number was calculated as a percentage of the control (F/LHERc cells without inhibitor) and the concentration of active substance which inhibits the proliferation of the cells by 50% (IC50) was derived therefrom.

T1 sequence (P00533 25-1210): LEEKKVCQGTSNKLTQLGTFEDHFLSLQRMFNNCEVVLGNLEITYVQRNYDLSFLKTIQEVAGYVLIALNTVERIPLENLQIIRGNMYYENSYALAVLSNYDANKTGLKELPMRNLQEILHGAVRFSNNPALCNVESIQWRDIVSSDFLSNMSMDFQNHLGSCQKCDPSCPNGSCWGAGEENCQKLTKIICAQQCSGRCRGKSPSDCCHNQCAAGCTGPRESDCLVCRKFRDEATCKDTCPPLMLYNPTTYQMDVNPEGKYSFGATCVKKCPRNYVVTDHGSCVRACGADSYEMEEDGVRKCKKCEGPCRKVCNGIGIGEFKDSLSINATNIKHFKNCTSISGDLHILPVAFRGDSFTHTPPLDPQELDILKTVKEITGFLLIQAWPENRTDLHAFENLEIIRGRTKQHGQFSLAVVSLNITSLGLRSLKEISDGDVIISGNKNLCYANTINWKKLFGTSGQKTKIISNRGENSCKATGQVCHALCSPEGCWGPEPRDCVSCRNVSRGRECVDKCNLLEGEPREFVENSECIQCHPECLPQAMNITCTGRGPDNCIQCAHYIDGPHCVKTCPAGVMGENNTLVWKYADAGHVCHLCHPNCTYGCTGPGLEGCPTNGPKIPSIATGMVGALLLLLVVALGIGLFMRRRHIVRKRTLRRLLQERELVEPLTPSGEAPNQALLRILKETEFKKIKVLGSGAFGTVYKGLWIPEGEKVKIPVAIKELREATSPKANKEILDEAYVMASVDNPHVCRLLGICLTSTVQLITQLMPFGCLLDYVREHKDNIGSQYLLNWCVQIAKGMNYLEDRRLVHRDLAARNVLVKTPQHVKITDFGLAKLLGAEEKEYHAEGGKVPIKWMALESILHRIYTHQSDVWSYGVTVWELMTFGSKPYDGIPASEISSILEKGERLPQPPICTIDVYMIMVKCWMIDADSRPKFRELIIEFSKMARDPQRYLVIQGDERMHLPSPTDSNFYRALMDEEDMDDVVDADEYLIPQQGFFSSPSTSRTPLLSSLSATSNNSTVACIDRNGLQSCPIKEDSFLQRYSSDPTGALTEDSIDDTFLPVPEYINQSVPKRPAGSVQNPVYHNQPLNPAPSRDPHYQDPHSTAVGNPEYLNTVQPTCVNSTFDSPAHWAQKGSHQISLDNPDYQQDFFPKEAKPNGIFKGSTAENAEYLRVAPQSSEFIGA

By IC50 is commonly meant the concentration that inhibits the measured activity by half. As for `O=C1CC(N2CCN(CCOc3cc4ncnc(Nc5ccc(F)c(Cl)c5)c4cc3OC3CCCC3)CC2)CO1` (stereo not shown) [3(1), 4-[(3-chloro-4-fluorophenyl)amino]-6-cyclopentyloxy-7-{2-[4-(2-oxo-tetrahydrofuran-4-yl)-piperazin-1-yl]-ethoxy}-quinazoline], it took 11 nM to reach half-maximal inhibition (IC50).
Under `O=C1OCCC1N1CCN(CCOc2cc3ncnc(Nc4ccc(F)c(Cl)c4)c3cc2OC2CCCC2)CC1` (stereo not shown) [Example 1, 4-[(3-chloro-4-fluorophenyl)amino]-6-cyclopentyloxy-7-{2-[4-(2-oxo-tetrahydrofuran-3-yl)-piperazin-1-yl]-ethoxy}-quinazoline] stands 4 nM.
As to `O=C1CC(N2CCN(CCOc3cc4ncnc(Nc5ccc(F)c(Cl)c5)c4cc3OCC3CCCC3)CC2)CO1` (stereo not shown) [Example 3, 4-[(3-chloro-4-fluorophenyl)amino]-6-cyclopentylmethoxy-7-{2-[4-(2-oxo-tetrahydrofuran-4-yl)-piperazin-1-yl]-ethoxy}-quinazoline], the half-maximal inhibitory concentration (IC50) was determined as 62 nM.
Under `O=C1CC[C@H](CN2CCN(CCOc3cc4ncnc(Nc5ccc(F)c(Cl)c5)c4cc3OC3CCCC3)CC2)O1` [Example 4, 4-[(3-chloro-4-fluorophenyl)amino]-6-cyclopentyloxy-7-(2-{4-[(R)-(2-oxo-tetrahydrofuran-5-yl)methyl]-piperazin-1-yl}-ethoxy)-quinazoline] stands 67 nM.
